{
  "source": "patent US8933230B2",
  "about": "“Phosphorus-containing group-substituted quinoline, its preparation process, medical composition containing the compounds and application” (priority 2011, dated 2015)",
  "test_in_all_cases": "KinomeScan kinase panel",
  "type_in_all_cases": "binding",
  "key": {"NEK1": {"target": "T1, NEK1 (Homo sapiens, UniProt Q96PY6)", "T1 construct": "purchased DiscoveRx Corporation (KinomeScan)", "outline": "(§1)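 Each kinase in a 442-kinase KinomeScan set is assayed with compound present at 1000 nM, and percentage-type inhibition at that level is given.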"}, "GSK3A": {"target": "T2, GSK3A (Homo sapiens, UniProt P49840)", "T2 construct": "purchased DiscoveRx Corporation (KinomeScan)", "outline": "as §1"}, "EPHA6": {"target": "T3, EPHA6 (Homo sapiens, UniProt Q9UF33)", "T3 construct": "purchased DiscoveRx Corporation (KinomeScan)", "T3 sequence (Q9UF33 23-1036)": "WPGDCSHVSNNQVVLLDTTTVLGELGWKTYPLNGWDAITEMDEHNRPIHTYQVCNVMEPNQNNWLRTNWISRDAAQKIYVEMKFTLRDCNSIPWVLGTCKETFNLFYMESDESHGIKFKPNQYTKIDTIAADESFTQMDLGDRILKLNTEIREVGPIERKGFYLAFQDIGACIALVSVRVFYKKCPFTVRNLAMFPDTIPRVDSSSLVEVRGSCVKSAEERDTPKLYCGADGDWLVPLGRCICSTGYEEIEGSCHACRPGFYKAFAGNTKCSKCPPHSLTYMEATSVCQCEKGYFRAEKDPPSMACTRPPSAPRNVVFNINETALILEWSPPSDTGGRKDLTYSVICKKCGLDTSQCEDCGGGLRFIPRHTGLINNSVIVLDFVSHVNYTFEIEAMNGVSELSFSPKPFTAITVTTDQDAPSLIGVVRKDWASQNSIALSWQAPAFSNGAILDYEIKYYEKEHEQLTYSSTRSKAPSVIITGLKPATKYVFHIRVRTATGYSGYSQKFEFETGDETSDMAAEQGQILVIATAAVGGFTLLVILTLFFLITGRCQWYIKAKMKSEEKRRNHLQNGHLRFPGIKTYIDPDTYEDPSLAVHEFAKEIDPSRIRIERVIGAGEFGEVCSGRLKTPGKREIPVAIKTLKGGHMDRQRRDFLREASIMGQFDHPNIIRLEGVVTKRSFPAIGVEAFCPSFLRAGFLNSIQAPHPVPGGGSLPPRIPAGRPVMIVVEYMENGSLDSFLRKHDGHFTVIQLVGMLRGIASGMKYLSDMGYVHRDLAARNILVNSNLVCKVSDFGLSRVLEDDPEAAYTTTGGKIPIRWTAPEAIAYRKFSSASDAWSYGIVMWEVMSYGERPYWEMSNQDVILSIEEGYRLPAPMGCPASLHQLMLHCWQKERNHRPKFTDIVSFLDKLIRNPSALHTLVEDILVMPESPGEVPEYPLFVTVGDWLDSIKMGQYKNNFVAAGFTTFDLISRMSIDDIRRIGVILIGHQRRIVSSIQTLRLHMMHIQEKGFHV", "outline": "as §1"}, "P38-beta": {"target": "T4, P38-beta (Homo sapiens, UniProt Q15759)", "T4 construct": "purchased DiscoveRx Corporation (KinomeScan panel)", "outline": "as §1"}, "JNK3": {"target": "T5, JNK3 (Homo sapiens, UniProt P53779)", "T5 construct": "purchased DiscoveRx Corporation (KinomeScan)", "outline": "as §1"}, "CDC2L2": {"target": "T6, CDC2L2 (Homo sapiens, UniProt Q9UQ88)", "T6 construct": "purchased DiscoveRx Corporation (KinomeScan)", "outline": "as §1"}, "MST3": {"target": "T7, MST3 (Homo sapiens, UniProt Q9Y6E0)", "T7 construct": "purchased DiscoveRx Corporation (KinomeScan)", "outline": "as §1"}, "YANK3": {"target": "T8, YANK3 (Homo sapiens, UniProt Q86UX6)", "T8 construct": "purchased DiscoveRx Corporation (KinomeScan service)", "outline": "as §1"}, "TNK2": {"target": "T9, TNK2 (Homo sapiens, UniProt Q07912)", "T9 construct": "purchased DiscoveRx Corporation (KinomeScan)", "outline": "as §1"}, "FLT3(D835H)": {"target": "T10, FLT3(D835H) (Homo sapiens, UniProt P36888, D835H)", "T10 construct": "purchased DiscoveRx Corporation (KinomeScan)", "outline": "as §1"}, "AMPK-alpha2": {"target": "T11, AMPK-alpha2 (Homo sapiens, UniProt P54646)", "T11 construct": "purchased DiscoveRx Corporation (KinomeScan)", "outline": "as §1"}, "CDK11": {"target": "T12, CDK11 (Homo sapiens, UniProt Q9BWU1)", "T12 construct": "purchased DiscoveRx Corporation (KinomeScan)", "outline": "as §1"}, "DCAMKL2": {"target": "T13, DCAMKL2 (Homo sapiens, UniProt Q8N568)", "T13 construct": "purchased DiscoveRx Corporation (KinomeScan)", "outline": "as §1"}, "S6K1": {"target": "T14, S6K1 (Homo sapiens, UniProt P23443)", "T14 construct": "purchased DiscoveRx Corporation (KinomeScan)", "outline": "as §1"}, "KIT(D816H)": {"target": "T15, KIT(D816H) (Homo sapiens, UniProt P10721, D816H)", "T15 construct": "purchased DiscoveRx Corporation (KinomeScan)", "T15 sequence (P10721 26-976 D816H)": "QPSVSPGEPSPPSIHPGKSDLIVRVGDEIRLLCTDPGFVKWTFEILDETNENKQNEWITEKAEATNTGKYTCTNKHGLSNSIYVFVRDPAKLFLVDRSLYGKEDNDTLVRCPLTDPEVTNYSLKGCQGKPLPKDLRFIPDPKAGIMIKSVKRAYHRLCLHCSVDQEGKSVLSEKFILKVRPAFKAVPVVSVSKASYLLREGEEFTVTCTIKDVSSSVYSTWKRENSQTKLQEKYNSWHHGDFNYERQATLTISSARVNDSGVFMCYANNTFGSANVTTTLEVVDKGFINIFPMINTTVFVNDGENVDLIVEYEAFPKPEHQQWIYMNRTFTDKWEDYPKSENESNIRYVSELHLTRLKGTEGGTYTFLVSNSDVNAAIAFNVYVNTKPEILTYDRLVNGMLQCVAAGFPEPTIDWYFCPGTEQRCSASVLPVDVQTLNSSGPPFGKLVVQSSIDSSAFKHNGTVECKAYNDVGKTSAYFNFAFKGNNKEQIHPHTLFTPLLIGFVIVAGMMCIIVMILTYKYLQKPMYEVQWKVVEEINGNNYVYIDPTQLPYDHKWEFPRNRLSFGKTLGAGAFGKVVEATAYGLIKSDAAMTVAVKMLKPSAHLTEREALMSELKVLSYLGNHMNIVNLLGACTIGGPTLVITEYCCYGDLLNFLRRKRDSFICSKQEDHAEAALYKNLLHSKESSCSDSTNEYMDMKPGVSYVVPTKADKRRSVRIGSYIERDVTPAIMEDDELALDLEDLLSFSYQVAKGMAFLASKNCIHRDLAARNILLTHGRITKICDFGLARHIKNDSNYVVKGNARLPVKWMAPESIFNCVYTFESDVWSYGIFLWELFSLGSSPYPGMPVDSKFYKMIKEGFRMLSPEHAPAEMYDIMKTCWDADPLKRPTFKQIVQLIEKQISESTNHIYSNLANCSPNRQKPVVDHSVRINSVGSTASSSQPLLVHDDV", "outline": "as §1"}, "IRAK4": {"target": "T16, IRAK4 (Homo sapiens, UniProt Q9NWZ3)", "T16 construct": "purchased DiscoveRx Corporation (KinomeScan)", "outline": "as §1"}, "[1]": {"target": "T17, ABL1(H396P)-phosphorylated (Homo sapiens, UniProt P00519, H396P)", "T17 construct": "purchased DiscoveRx Corporation (KinomeScan)", "outline": "as §1"}, "KIT(A829P)": {"target": "T18, KIT(A829P) (Homo sapiens, UniProt P10721, A829P)", "T18 construct": "purchased DiscoveRx Corporation (KinomeScan)", "T18 sequence (P10721 26-976 A829P)": "as the sequence (P10721 26-976 D816H) above, with H791D, A804P counted along it", "outline": "as §1"}, "SRMS": {"target": "T19, SRMS (Homo sapiens, UniProt Q9H3Y6)", "T19 construct": "purchased DiscoveRx Corporation (KinomeScan)", "outline": "as §1"}, "FLT3(R834Q)": {"target": "T20, FLT3(R834Q) (Homo sapiens, UniProt P36888, R834Q)", "T20 construct": "purchased DiscoveRx Corporation (KinomeScan)", "outline": "as §1"}, "MAP3K4": {"target": "T21, MAP3K4 (Homo sapiens, UniProt Q9Y6R4)", "T21 construct": "purchased DiscoveRx Corporation (KinomeScan)", "outline": "as §1"}, "PIM2": {"target": "T22, PIM2 (Homo sapiens, UniProt Q9P1W9)", "T22 construct": "purchased DiscoveRx Corporation (KinomeScan)", "outline": "as §1"}, "FLT3(K663Q)": {"target": "T23, FLT3(K663Q) (Homo sapiens, UniProt P36888, K663Q)", "T23 construct": "purchased DiscoveRx Corporation (KinomeScan)", "outline": "as §1"}, "TRPM6": {"test_system": "TRPM6", "outline": "as §1"}, "CAMKK1": {"target": "T24, CAMKK1 (Homo sapiens, UniProt Q8N5S9)", "T24 construct": "purchased DiscoveRx Corporation (KinomeScan)", "outline": "as §1"}, "MLK1": {"target": "T25, MLK1 (Homo sapiens, UniProt P80192)", "T25 construct": "purchased DiscoveRx Corporation (KinomeScan)", "outline": "as §1"}, "CLK1": {"target": "T26, CLK1 (Homo sapiens, UniProt P49759)", "T26 construct": "purchased DiscoveRx Corporation (KinomeScan)", "outline": "as §1"}, "MAP4K4": {"target": "T27, MAP4K4 (Homo sapiens, UniProt O95819)", "T27 construct": "purchased DiscoveRx Corporation (KinomeScan)", "outline": "as §1"}, "MELK": {"target": "T28, MELK (Homo sapiens, UniProt Q14680)", "T28 construct": "purchased DiscoveRx Corporation (KinomeScan)", "outline": "as §1"}, "FLT1": {"target": "T29, FLT1 (Homo sapiens, UniProt P17948)", "T29 construct": "purchased DiscoveRx Corporation (KinomeScan)", "T29 sequence (P17948 27-1338)": "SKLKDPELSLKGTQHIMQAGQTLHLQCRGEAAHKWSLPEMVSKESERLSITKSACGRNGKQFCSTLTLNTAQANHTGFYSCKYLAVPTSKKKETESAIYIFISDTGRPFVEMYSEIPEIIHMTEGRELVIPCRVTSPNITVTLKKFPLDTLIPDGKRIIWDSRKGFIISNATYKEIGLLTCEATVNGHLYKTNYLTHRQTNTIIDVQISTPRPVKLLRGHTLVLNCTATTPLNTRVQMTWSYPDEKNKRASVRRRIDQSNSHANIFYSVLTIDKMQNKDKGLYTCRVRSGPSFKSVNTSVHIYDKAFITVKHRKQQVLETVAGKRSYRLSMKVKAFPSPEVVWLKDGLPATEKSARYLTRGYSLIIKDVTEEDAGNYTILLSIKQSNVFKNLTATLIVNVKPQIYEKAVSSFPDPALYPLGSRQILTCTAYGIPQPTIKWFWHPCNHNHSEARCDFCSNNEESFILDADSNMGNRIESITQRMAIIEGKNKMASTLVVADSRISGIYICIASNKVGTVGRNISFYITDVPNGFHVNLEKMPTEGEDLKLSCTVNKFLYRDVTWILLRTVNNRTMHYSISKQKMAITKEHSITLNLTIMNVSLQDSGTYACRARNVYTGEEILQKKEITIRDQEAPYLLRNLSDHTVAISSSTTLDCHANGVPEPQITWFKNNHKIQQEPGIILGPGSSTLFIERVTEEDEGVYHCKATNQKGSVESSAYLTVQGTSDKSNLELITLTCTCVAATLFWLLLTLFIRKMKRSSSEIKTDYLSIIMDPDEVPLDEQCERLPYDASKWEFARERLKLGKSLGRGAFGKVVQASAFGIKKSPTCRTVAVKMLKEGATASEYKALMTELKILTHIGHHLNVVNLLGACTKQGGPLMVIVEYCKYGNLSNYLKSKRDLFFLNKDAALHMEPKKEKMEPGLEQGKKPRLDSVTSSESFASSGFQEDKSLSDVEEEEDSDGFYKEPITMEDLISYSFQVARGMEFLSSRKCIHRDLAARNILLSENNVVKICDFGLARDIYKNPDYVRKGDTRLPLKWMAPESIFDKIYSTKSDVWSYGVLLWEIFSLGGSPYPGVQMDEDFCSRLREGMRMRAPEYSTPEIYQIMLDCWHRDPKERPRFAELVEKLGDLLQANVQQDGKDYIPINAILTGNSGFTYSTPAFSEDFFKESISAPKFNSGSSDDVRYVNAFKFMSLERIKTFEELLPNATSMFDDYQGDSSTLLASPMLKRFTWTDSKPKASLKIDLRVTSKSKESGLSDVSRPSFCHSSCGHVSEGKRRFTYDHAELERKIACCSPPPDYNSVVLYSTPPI", "outline": "as §1"}, "RET": {"target": "T30, RET (Homo sapiens, UniProt P07949)", "T30 construct": "purchased DiscoveRx Corporation", "T30 sequence (P07949 29-1114)": "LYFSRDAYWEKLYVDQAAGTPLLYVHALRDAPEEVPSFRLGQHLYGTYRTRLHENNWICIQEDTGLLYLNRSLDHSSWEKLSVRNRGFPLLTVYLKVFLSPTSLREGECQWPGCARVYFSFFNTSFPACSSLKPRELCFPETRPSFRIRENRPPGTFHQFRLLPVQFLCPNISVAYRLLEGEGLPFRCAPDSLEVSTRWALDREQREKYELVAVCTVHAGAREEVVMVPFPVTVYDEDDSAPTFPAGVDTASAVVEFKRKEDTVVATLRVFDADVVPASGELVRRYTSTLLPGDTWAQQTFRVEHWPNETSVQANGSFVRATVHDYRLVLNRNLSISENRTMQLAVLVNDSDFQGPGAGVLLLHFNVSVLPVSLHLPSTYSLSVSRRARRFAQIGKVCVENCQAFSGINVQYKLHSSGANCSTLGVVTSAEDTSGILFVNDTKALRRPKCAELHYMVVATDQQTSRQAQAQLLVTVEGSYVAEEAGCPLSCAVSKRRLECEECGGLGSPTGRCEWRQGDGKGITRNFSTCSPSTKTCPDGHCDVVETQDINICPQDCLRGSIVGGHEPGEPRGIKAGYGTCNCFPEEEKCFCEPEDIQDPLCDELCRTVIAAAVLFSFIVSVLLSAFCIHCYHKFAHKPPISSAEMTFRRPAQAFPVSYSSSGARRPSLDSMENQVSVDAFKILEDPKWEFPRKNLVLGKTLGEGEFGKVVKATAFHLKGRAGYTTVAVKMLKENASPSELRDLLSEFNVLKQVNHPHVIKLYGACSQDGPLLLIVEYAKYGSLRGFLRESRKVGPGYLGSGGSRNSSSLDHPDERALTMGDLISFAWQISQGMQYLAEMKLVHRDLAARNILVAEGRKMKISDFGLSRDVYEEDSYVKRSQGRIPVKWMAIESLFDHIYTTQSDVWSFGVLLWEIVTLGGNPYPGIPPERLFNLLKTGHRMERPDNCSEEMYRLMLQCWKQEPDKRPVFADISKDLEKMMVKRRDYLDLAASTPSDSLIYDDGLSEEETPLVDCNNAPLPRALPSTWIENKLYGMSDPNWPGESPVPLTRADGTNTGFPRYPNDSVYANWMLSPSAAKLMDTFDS", "outline": "as §1"}, "[2]": {"target": "T31, ABL1(Y253F)-phosphorylated (Homo sapiens, UniProt P00519, Y253F)", "T31 construct": "purchased DiscoveRx Corporation (KinomeScan)", "outline": "as §1"}, "YES": {"target": "T32, YES (Homo sapiens, UniProt P07947)", "T32 construct": "purchased DiscoveRx Corporation (KinomeScan service)", "outline": "as §1"}, "SgK110": {"target": "T33, SgK110 (Homo sapiens, UniProt P0C264)", "T33 construct": "purchased DiscoveRx Corporation (KinomeScan)", "outline": "as §1"}, "[3]": {"target": "T34, ABL1(M351T)-phosphorylated (Homo sapiens, UniProt P00519, M351T)", "T34 construct": "purchased DiscoveRx Corporation (KinomeScan)", "outline": "as §1"}, "PCTK2": {"target": "T35, PCTK2 (Homo sapiens, UniProt Q00537)", "T35 construct": "purchased DiscoveRx Corporation (KinomeScan panel)", "T35 sequence (Q00537 whole entry)": "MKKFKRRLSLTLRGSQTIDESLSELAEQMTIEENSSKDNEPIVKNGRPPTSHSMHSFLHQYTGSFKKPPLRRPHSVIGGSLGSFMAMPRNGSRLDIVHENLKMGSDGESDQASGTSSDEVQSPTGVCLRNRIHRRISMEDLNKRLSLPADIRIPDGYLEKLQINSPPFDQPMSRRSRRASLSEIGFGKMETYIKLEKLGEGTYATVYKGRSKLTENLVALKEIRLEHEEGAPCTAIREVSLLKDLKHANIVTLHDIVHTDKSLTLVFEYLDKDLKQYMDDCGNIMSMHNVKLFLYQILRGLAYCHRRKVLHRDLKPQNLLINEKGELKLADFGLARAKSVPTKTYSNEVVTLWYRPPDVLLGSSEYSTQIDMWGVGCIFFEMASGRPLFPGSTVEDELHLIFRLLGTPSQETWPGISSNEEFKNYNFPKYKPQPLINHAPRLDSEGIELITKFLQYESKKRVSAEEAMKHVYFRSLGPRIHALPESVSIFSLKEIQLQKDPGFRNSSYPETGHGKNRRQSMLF", "outline": "as §1"}},
  "data": [
    {"smiles": "CCOP(=O)(CN1CCC(COc2cc3nccc(Oc4ccc(NC(=O)C5(C(=O)Nc6ccc(F)cc6)CC5)cc4F)c3cc2OC)CC1)OCC", "note": "[Example 10, N1-[4-[[7-[[1-(diethoxyphosphorylmethyl)-4-piperidinyl]methoxyl]-6-methoxyl-4-quinolyl]oxyl]-3-fluorophenyl]-N1′-(4-fluorophenyl)cyclopropane-1,1-dicarboxamide]", "values": [
      {"measurement": "% Ctrl@1000 nM", "setting": "NEK1", "result": 100, "unit": "% Ctrl"},
      {"measurement": "% Ctrl@1000 nM", "setting": "GSK3A", "result": 100, "unit": "% Ctrl"},
      {"measurement": "% Ctrl@1000 nM", "setting": "EPHA6", "result": 4.8, "unit": "% Ctrl"},
      {"measurement": "% Ctrl@1000 nM", "setting": "P38-beta", "result": 87, "unit": "% Ctrl"},
      {"measurement": "% Ctrl@1000 nM", "setting": "JNK3", "result": 95, "unit": "% Ctrl"},
      {"measurement": "% Ctrl@1000 nM", "setting": "CDC2L2", "result": 100, "unit": "% Ctrl"},
      {"measurement": "% Ctrl@1000 nM", "setting": "MST3", "result": 100, "unit": "% Ctrl"},
      {"measurement": "% Ctrl@1000 nM", "setting": "YANK3", "result": 100, "unit": "% Ctrl"},
      {"measurement": "% Ctrl@1000 nM", "setting": "TNK2", "result": 94, "unit": "% Ctrl"},
      {"measurement": "% Ctrl@1000 nM", "setting": "FLT3(D835H)", "result": 0.6, "unit": "% Ctrl"},
      {"measurement": "% Ctrl@1000 nM", "setting": "AMPK-alpha2", "result": 100, "unit": "% Ctrl"},
      {"measurement": "% Ctrl@1000 nM", "setting": "CDK11", "result": 67, "unit": "% Ctrl"},
      {"measurement": "% Ctrl@1000 nM", "setting": "DCAMKL2", "result": 100, "unit": "% Ctrl"},
      {"measurement": "% Ctrl@1000 nM", "setting": "S6K1", "result": 89, "unit": "% Ctrl"},
      {"measurement": "% Ctrl@1000 nM", "setting": "KIT(D816H)", "result": 63, "unit": "% Ctrl"},
      {"measurement": "% Ctrl@1000 nM", "setting": "IRAK4", "result": 100, "unit": "% Ctrl"},
      {"measurement": "% Ctrl@1000 nM", "setting": "[1]", "result": 63, "unit": "% Ctrl"},
      {"measurement": "% Ctrl@1000 nM", "setting": "KIT(A829P)", "result": 64, "unit": "% Ctrl"},
      {"measurement": "% Ctrl@1000 nM", "setting": "SRMS", "result": 8.9, "unit": "% Ctrl"},
      {"measurement": "% Ctrl@1000 nM", "setting": "FLT3(R834Q)", "result": 16, "unit": "% Ctrl"},
      {"measurement": "% Ctrl@1000 nM", "setting": "MAP3K4", "result": 100, "unit": "% Ctrl"},
      {"measurement": "% Ctrl@1000 nM", "setting": "PIM2", "result": 67, "unit": "% Ctrl"},
      {"measurement": "% Ctrl@1000 nM", "setting": "FLT3(K663Q)", "result": 0.55, "unit": "% Ctrl"},
      {"measurement": "% Ctrl@1000 nM", "setting": "TRPM6", "result": 86, "unit": "% Ctrl"},
      {"measurement": "% Ctrl@1000 nM", "setting": "CAMKK1", "result": 32, "unit": "% Ctrl"},
      {"measurement": "% Ctrl@1000 nM", "setting": "MLK1", "result": 83, "unit": "% Ctrl"},
      {"measurement": "% Ctrl@1000 nM", "setting": "CLK1", "result": 89, "unit": "% Ctrl"},
      {"measurement": "% Ctrl@1000 nM", "setting": "MAP4K4", "result": 100, "unit": "% Ctrl"},
      {"measurement": "% Ctrl@1000 nM", "setting": "MELK", "result": 29, "unit": "% Ctrl"},
      {"measurement": "% Ctrl@1000 nM", "setting": "FLT1", "result": 7.3, "unit": "% Ctrl"},
      {"measurement": "% Ctrl@1000 nM", "setting": "RET", "result": 0.1, "unit": "% Ctrl"},
      {"measurement": "% Ctrl@1000 nM", "setting": "[2]", "result": 32, "unit": "% Ctrl"},
      {"measurement": "% Ctrl@1000 nM", "setting": "YES", "result": 20, "unit": "% Ctrl"},
      {"measurement": "% Ctrl@1000 nM", "setting": "SgK110", "result": 100, "unit": "% Ctrl"},
      {"measurement": "% Ctrl@1000 nM", "setting": "[3]", "result": 42, "unit": "% Ctrl"},
      {"measurement": "% Ctrl@1000 nM", "setting": "PCTK2", "result": 100, "unit": "% Ctrl"}
    ]}
  ]
}
